Results reported in patent US12622906B2, “Treatment and prognosis of pancreatic cancer” (Cambridge Enterprise Limited, priority 2019, dated 2026).

Experiments:
[1] = system: PDAC cells; assay: 3D in vitro assay of invasion, PDAC cells co-cultured with BMDM (IncuCyte Zoom, NeuroTrack); format: cell-based, murine; conditions: 3D co-culture of PDAC cells with BMDM; pre-treatment 24 hours or treatment at time of co-culture
Procedure: Cell-matrix cultures were performed by seeding PDAC cells onto wells pre-coated with 1 mg/mL Matrix Growth Factor Reduced Matrigel (Becton Dickinson). To observe cell invasion through Matrigel, plates were placed into IncuCyte Zoom (Essen Bioscience) with the software set to capture images every 3 hours in green and fluorescent protein (GFP/RFP)/Bright Field (or Phase Contrast).
For co-cultures, mCherry-labelled PDAC cells were mixed 1:1 with ZsGreen-labelled macrophages, typically primary BMDM unless otherwise noted. Co-cultures were seeded and kept as subconfluent cultures for 48-96 hours in either 2D or 3D conditions.
To quantify the invasive capacity of PDAC cells, 3D in vitro invasion assays were quantified using software provided by Essen Bioscience, NeuroTrack. […] Unlike high-content imaging systems, which require fixation, staining, and endpoint analysis of cells, the algorithm measured live-cell dynamics. […] Once parameters were defined, they were applied to all 3D in vitro invasion assays for quantification.
The NeuroTrack software measures fluorescent-labelled cells. […] In this method, only PDAC cells that have invaded out of 3D structures are counted if they have a fluorescent mCherry label present in their nucleus. Data is plotted with number of nuclei counted on the y-axis and time on the x-axis. […]

[2] = system: fibroblasts and macrophages; assay: Viability of non-cancerous cells treated with CCR1 antagonist; format: cell-based; conditions: compared with vehicle control
[3] = system: CCR1 expression; assay: CCR1 expression in PDAC cells after prolonged co-culture with BMDM (qRT-PCR, flow cytometry); format: cell-based, murine; conditions: PDAC cells co-cultured with BMDM; by qRT-PCR and flow cytometry
Procedure: Culture conditions for PDAC and BMDM cell lines used in this study are described above. For co-cultures, mCherry-labelled PDAC cells were mixed 1:1 with ZsGreen-labelled macrophages, typically primary BMDM unless otherwise noted. Co-cultures were seeded and kept as subconfluent cultures for 48-96 hours in either 2D or 3D conditions.
Total RNA was isolated and purified from cells using Qiazol reagent and miRNeasy mini kit (Qiagen). cDNA was synthesized using the High Capacity RNA-to-cDNA kit (ABI) according to manufacturer's instructions. qRT-PCR was performed using Power SYBR Green PCR Master Mix (ABI) on the TaqMan 7900 (ABI). Relative expression levels were defined using the ΔΔCt method and normalizing to 18S rRNA and/or GAPDH.
Pre-treatment: PDAC cells and BMDM were pre-treated with CCR1 antagonists 24 hours prior to the start of the experiment, harvested and then seeded according to the co-culture method previously described for the duration of the experiment.
Treatment at time of co-culture: PDAC cells and BMDM were seeded according to the co-culture method as previously described and CCR1 antagonists were treated at the time of seeding and allowed to incubate for the duration of the experiment. […]

| SMILES | macrophage-mediated pro-invasive phenotype of PDAC cells [1] | viability of fibroblasts and macrophages [2] | induction of CCR1 expression due to prolonged co-culture [3] |
| --- | --- | --- | --- |
| C[C@@H]1CN(Cc2ccc(F)cc2)CCN1C(=O)COc1ccc(Cl)cc1NC(N)=O [BX-471, (2R)-1-[[2-[(Aminocarbonyl)amino]-4-chlorophenoxy]acetyl]-4-[(4-fluorophenyl)methyl]-2-methylpiperazine] | striking ability to rein in the effect of macrophages to confer functional pro-invasive abilities to PDAC cells | just as viable as cell treated with vehicle control |  |
| CC[N@+]1(C/C2=C/CCCCCC2)CC[C@@H](NC(=O)C2c3cc(Cl)ccc3Oc3ccc(Cl)cc32)CC1.[I-] [J113863, 1,4-cis-1-(1-cycloocten-1-ylmethyl)-4-[[(2,7-dichloro-9H-xanthen-9-yl)carbonyl]amino]-1-ethylpiperidinium iodide] | striking ability to rein in the effect of macrophages to confer functional pro-invasive abilities to PDAC cells |  | blunting the induction of CCR1 expression |
